{
  "source": "patent US8637672B2",
  "about": "(Deciphera Pharmaceuticals, LLC, priority 2010, dated 2014)",
  "origin": "cited, not measured here",
  "target": "VEGFR-2 (KDR kinase) (Homo sapiens, UniProt P35968, DEL940-989/E990V)",
  "sequence (P35968 with tags, fused parts or gaps DEL940-989/E990V)": "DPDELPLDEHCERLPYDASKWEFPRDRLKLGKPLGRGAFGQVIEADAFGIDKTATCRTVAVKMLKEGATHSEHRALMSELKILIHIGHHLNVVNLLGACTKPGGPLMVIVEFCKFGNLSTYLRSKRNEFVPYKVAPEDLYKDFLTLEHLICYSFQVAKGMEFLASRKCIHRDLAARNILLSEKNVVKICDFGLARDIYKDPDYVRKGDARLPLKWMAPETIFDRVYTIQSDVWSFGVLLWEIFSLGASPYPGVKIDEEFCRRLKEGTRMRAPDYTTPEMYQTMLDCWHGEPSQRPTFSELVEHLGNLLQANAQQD",
  "conditions": "values published in the '188/'556 applications; cited from earlier work",
  "data": [
    {"smiles": "CN1CCN(C2CCN(C(=O)Nc3cc(Oc4ccc(NC(=O)C5(C(=O)Nc6ccc(F)cc6)CC5)c(F)c4)ccn3)CC2)CC1", "note": "[Compound F]", "values": [
      {"measurement": "IC50", "value": 240, "unit": "nM"}
    ]}
  ]
}
